Laboratory results taken from ChEMBL document CHEMBL4411324, “Comprehensive structure-activity-relationship of azaindoles as highly potent FLT3 inhibitors” (Bioorg Med Chem, 2019).
pIC50: −log10 of the molar value.

What was measured:
[1] = target: Receptor-type tyrosine-protein kinase FLT3 (Homo sapiens, UniProt P36888, ITD); experiment: Inhibition of recombinant human N-terminal GST/His6-fused FLT3 ITD mutant (R571 to S993 residues) expressed in Sf9 insect cells assessed as residual activity using ULightTM-TK peptide as substrate incubated for 90 mins under dark condition by FRET assay
Chain of Receptor-type tyrosine-protein kinase FLT3 (P36888 whole entry, looked up, stated change not applied, the tested form may be a part): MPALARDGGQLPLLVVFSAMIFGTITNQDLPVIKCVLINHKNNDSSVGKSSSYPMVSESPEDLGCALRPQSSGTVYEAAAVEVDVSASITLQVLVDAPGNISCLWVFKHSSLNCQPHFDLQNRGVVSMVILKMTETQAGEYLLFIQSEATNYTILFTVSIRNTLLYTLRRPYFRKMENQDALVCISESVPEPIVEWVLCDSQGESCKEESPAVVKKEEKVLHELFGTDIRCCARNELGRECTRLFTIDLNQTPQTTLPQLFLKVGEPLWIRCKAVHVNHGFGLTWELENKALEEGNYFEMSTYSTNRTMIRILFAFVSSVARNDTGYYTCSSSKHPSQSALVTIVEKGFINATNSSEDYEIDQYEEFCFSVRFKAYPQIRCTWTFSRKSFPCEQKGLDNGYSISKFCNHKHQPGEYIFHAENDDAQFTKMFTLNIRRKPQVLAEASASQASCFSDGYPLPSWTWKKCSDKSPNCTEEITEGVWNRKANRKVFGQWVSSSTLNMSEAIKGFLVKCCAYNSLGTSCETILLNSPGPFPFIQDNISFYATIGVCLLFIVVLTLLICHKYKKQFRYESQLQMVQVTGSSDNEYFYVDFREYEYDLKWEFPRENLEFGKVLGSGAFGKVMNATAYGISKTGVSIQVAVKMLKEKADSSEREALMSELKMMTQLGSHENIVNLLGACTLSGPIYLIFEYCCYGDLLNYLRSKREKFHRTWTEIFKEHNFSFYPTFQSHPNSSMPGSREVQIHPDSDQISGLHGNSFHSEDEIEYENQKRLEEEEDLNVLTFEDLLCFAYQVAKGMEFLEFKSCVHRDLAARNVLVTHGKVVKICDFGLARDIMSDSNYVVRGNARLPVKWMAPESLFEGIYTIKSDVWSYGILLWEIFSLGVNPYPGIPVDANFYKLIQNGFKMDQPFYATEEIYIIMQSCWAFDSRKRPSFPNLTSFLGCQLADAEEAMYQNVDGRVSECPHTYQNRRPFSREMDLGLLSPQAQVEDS

[2] = test system: Receptor-type tyrosine-protein kinase FLT3 (Homo sapiens), P36888 [UNDEFINED MUTATION]; experiment: Inhibition of recombinant human N-terminal GST/His6-fused FLT3 ITD mutant (R571 to S993 residues) expressed in Sf9 insect cells assessed as residual activity at 2 uM using ULightTM-TK peptide as substrate incubated for 90 mins under dark condition by FRET assay relative to control
Chain of Receptor-type tyrosine-protein kinase FLT3 (Homo sapiens), P36888 [UNDEFINED MUTATION] (P36888 whole entry, looked up, stated change not applied, the tested form may be a part): as above

[3] = Lipophilicity, log D of the compound at pH 7.4; assay type: physicochemical; details: buffer

SMILES | pIC50 [1] | other results
O=C1NCc2ccc(S(=O)(=O)NCCNC/C=C/c3ccc(-c4cccnc4)cc3)cc21 | 7.32 | 
O=S(=O)(NCCNCCc1ccc(-c2cccnc2)cc1)c1cccc2cnccc12 | 6.57 | 
O=S(=O)(NCCNC/C=C/c1ccc(-c2cccnc2)cc1)c1ccc2cn[nH]c2c1 | 7.77 | 
O=C(CCc1ccc(-c2cnc3[nH]ccc3c2)cc1)NCCNS(=O)(=O)c1ccc(Cl)cc1 | 8.62 | 
O=C(CCc1ccc(-c2cnc3[nH]ccc3c2)cc1)NCCNS(=O)(=O)c1cccc(C(F)(F)F)c1 | 8.37 | 
O=S(=O)(NCCNCCCc1ccc(-c2cnc3[nH]ccc3c2)cc1)c1ccc(Cl)c(Cl)c1 | 8.13 | 
O=S(=O)(NCCNC/C=C/c1ccc(-c2cccnc2)cc1)c1ccc2[nH]ncc2c1 | 8.01 | 
O=S(=O)(NCCOC/C=C/c1ccc(-c2cccnc2)cc1)c1cccc2cnccc12 | 8.08 | 
Nc1nccc2c(S(=O)(=O)NCCNC/C=C/c3ccc(-c4cccnc4)cc3)cccc12 | 7.62 | 
O=S(=O)(NCCNCc1ccc(-c2cccnc2)cc1)c1cccc2cnccc12 | 6.80 | 
O=S(=O)(NCCNC/C=C/c1ccc(-c2ccc3ccccc3c2)cc1)c1cccc2cnccc12 | < 5.00 | 
O=C(CCc1ccc(-c2cnc3[nH]ccc3c2)cc1)NCCNS(=O)(=O)c1cccc(Cl)c1 | 8.72 | 
O=S(=O)(NCCNCCCc1ccc(-c2cccnc2)cc1)c1cccc2cnccc12 | 8.05 | 
Nc1ncccc1-c1ccc(CCC(=O)NCCNS(=O)(=O)c2cccc3cnccc23)cc1 | 6.82 | 
COc1ccc(S(=O)(=O)NCCNC(=O)CCc2ccc(-c3cnc4[nH]ccc4c3)cc2)cc1 | 8.74 | 
CN(CCNCCCc1ccc(-c2cccnc2)cc1)S(=O)(=O)c1cccc2cnccc12 | 7.32 | 
O=S(=O)(NCCNC/C=C/c1ccc(-c2cccnc2)cc1)c1cccc2ccccc12 | 7.21 | 
O=S(=O)(NCCNCCCc1ccc(-c2cnc3[nH]ccc3c2)cc1)c1ccccc1 | 8.88 | 
O=C1NCc2c1cccc2S(=O)(=O)NCCNC/C=C/c1ccc(-c2cccnc2)cc1 | 7.70 | 
O=C(CCc1ccc(-c2cccnc2)cc1)NCCNS(=O)(=O)c1cccc2cnccc12 | 7.49 | 
Cc1ccc(S(=O)(=O)NCCNCCCc2ccc(-c3cnc4[nH]ccc4c3)cc2)cc1 | 8.69 | 
O=S(=O)(NCCNC/C=C/c1ccc(-c2ccccc2)cc1)c1cccc2cnccc12 | < 5.00 | 
CNC(=O)c1ncccc1-c1ccc(CCC(=O)NCCNS(=O)(=O)c2cccc3cnccc23)cc1 | < 5.00 | 
O=C(CCc1ccc(-c2cnc3[nH]ccc3c2)cc1)NCCNS(=O)(=O)c1cccc2cnccc12 | 8.87 | 
O=C(CCc1ccc(-c2cnc3[nH]ccc3c2)cc1)NCCNS(=O)(=O)c1cc(Cl)cc(Cl)c1 | 8.16 | 
O=S(=O)(NCCNCCCc1ccc(-c2cnc3[nH]ccc3c2)cc1)c1cccc2cnccc12 | 8.78 | 

SMILES | pIC50 [1] | other results
CN(C/C=C/c1ccc(-c2cccnc2)cc1)CCN(C)S(=O)(=O)c1cccc2cnccc12 | 6.90 | 
O=C1NCc2cc(S(=O)(=O)NCCNC/C=C/c3ccc(-c4cccnc4)cc3)ccc21 | 7.74 | 
O=[N+]([O-])c1ccccc1S(=O)(=O)NCCNC/C=C/c1ccc(-c2cccnc2)cc1 | 8.07 | 
O=S(=O)(NCCNC/C=C/c1ccc(-c2cnc3ccccc3c2)cc1)c1cccc2cnccc12 |  | Activity [2]: 9%
O=C(CCc1ccc(-c2cnc3[nH]ccc3c2)cc1)NCCNS(=O)(=O)c1ccc(F)cc1 | 9.39 | 
O=C(CCc1ccc(-c2cnc3[nH]ccc3c2)cc1)NCCNS(=O)(=O)c1ccccc1Cl | 9.32 | 
CNC(=O)c1ccc(-c2ccc(CCC(=O)NCCNS(=O)(=O)c3cccc4cnccc34)cc2)cn1 | < 5.00 | 
Nc1ccc(-c2ccc(CCC(=O)NCCNS(=O)(=O)c3cccc4cnccc34)cc2)cn1 | 7.63 | 
CNC(=O)c1ccc(S(=O)(=O)NCCNC/C=C/c2ccc(-c3cccnc3)cc2)cn1 | 7.86 | 
O=S(=O)(NCCOCCCc1ccc(-c2cccnc2)cc1)c1cccc2cnccc12 | 7.41 | 
Nc1cc2c(S(=O)(=O)NCCNC/C=C/c3ccc(-c4cccnc4)cc3)cccc2cn1 | 7.71 | 
O=S(=O)(NCCNC/C=C/c1ccc(-c2cncnc2)cc1)c1cccc2cnccc12 |  | Activity [2]: 13%
O=S(=O)(NCCNCCCc1ccc(-c2cnc3[nH]ccc3c2)cc1)c1ccc(Cl)cc1 | 8.36 | 
Nc1ccccc1S(=O)(=O)NCCNC/C=C/c1ccc(-c2cccnc2)cc1 | 7.57 | 
O=C(NCCNC/C=C/c1ccc(-c2cccnc2)cc1)c1cccc2cnccc12 | < 5.00 | 
CN(C/C=C/c1ccc(-c2cccnc2)cc1)CCNS(=O)(=O)c1cccc2cnccc12 | 6.87 | 
Cc1ccc(S(=O)(=O)NCCNC(=O)CCc2ccc(-c3cnc4[nH]ccc4c3)cc2)cc1 | 8.67 | 
O=S(=O)(NCCNC/C=C/c1ccc(-c2cccnc2)cc1)c1cccc2cnccc12 | 8.02 | Activity [2]: 13%; logD [3]: 1.5
O=S(=O)(NCCNCc1ccc2cc(-c3cccnc3)ccc2c1)c1cccc2cnccc12 | 6.25 | 
O=C(CCc1ccc(-c2cnc3[nH]ccc3c2)cc1)NCCNS(=O)(=O)c1ccccc1 | 9.49 | 
CN(CCNC/C=C/c1ccc(-c2cccnc2)cc1)S(=O)(=O)c1cccc2cnccc12 | 6.74 | 
COc1ccc(S(=O)(=O)NCCNCCCc2ccc(-c3cnc4[nH]ccc4c3)cc2)cc1 | 8.62 | 
O=C(CCc1ccc(-c2cnc3[nH]ccc3c2)cc1)NCCNS(=O)(=O)c1ccc(Cl)c(Cl)c1 | 8.39 | 
CS(=O)(=O)NCCNC/C=C/c1ccc(-c2cccnc2)cc1 | 6.19 | 
O=S(=O)(NCCNC/C=C/c1ccc(-c2cn[nH]c2)cc1)c1cccc2cnccc12 |  | Activity [2]: 14%
O=S(=O)(NCCCCCCc1ccc(-c2cccnc2)cc1)c1cccc2cnccc12 | 6.77 | 
